The results in this text go back to US20220211692A1, “Modulators of the Cystic Fibrosis Transmembrane Conductance Regulator Protein and Methods of Use” (AbbVie Global Enterprises Ltd., priority 2021, published 2022).

SMILES strings stand for the structures. Where two headings read alike, the source gives them in different places.

Assay [1] has as its target T1, F508delCFTR (Homo sapiens, UniProt P13569, DEL508-508).
T1 construct: expressed in transfected cells; host or cells: CFBE41o- human lung derived epithelial cell line, doxycycline-induced expression
The experiment in a line: Cell Surface Expression-Horse Radish Peroxidase (CSE-HRP) assay in CFBE41o-F508delCFTR-HRP cells. In kind it is cell-based. Particulars: for EC50: CFBE41o-F508delCFTR-HRP cells, 18-24 hours at 33° C.; for Emax: read-out: Maximum % activity (without co-corrector). The method, boiled down: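 Doxycycline (0.5 μg/mL) induced HRP-tagged F508delCFTR in CFBE41o- cells for 68-72 h at 37 °C; compounds ± co-corrector (2 μM) then ran 18-24 h at 33 °C, 8-point 3-fold series from 20 or 30 μM. After DPBS washes, surface HRP was read by luminol luminescence. Activity was normalised to the on-plate positive control versus DMSO, and EC50 was fitted by variable-slope sigmoid from triplicate plates.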

The target of assay [2] is T2, F508del/F508del CFTR (Homo sapiens, UniProt P13569, DEL508-508).
T2 construct: cells isolated from CF patients with the homozygous mutation; endogenous in cells; host or cells: primary human bronchial epithelial (hBE) cells from CF patients homozygous for F508del
T2 sequence (P13569 with tags, fused parts or gaps DEL508-508): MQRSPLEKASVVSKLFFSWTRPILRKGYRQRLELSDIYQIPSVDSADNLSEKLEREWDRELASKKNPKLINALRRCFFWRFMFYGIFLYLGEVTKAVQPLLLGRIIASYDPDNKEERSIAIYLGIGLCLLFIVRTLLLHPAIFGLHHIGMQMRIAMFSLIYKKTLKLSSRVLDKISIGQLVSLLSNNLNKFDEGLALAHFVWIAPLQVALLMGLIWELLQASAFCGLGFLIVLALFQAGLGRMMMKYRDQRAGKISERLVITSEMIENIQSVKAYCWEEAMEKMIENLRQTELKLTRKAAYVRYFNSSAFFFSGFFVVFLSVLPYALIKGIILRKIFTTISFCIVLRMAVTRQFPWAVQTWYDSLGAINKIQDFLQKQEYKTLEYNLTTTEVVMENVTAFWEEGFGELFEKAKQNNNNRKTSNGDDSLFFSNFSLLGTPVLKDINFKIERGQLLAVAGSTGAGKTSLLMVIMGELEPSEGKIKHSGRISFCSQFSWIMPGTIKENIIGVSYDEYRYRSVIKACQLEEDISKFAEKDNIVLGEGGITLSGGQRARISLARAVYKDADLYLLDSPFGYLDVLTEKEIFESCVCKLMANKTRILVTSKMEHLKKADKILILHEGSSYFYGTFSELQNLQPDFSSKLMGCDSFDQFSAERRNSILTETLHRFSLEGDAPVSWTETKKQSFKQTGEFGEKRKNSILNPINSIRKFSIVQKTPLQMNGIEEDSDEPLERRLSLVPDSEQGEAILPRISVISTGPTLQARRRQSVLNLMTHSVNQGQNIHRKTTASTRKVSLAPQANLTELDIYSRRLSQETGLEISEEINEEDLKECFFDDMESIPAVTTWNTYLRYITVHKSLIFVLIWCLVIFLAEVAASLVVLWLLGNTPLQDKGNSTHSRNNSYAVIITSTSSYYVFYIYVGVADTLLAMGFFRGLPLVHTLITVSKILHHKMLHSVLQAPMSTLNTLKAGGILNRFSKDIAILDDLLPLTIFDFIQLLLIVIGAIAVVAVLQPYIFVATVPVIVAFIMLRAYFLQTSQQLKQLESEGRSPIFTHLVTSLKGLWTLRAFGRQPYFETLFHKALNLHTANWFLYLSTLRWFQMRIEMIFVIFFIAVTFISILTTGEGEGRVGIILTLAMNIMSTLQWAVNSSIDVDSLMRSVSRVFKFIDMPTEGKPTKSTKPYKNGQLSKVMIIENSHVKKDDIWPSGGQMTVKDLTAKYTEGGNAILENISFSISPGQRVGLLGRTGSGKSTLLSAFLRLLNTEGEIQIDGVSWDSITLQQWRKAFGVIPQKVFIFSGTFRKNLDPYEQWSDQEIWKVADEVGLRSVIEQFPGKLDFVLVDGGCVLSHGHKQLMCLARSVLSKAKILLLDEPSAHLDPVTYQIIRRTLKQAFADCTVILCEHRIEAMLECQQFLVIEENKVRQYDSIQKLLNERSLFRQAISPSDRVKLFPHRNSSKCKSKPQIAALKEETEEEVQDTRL
In words: Trans-Epithelial Current Clamp (TECC) assay using primary human bronchial epithelial cells. The assay is classed as cell-based. Particulars: for Emax (% Dual): maximum percent activity relative to positive control (co-corrector 0.15 μM + potentiator 0.45 μM = 100%); for EC50: primary hBE cells F508del/F508del, test corrector with co-corrector and potentiator, 18-24 hours, equivalent CFTR current. The procedure, abridged: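 Readout is the equivalent CFTR current (IEQ, from offset-corrected VT and RT) plus AUC from forskolin peak to bumetanide addition, recorded on TECC-24 at 36.5° C. Beforehand, homozygous F508del hBE cultures received correctors with co-corrector and potentiator basolaterally for 18-24 h at 37° C.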

Setting [3] is: with co-corrector 2 μM, read-out: EC50 (with co-corrector).
Setting [4] is: without co-corrector, read-out: EC50 (without co-corrector).
The mark [5] stands for this setting: without co-corrector, normalized to on-plate positive control.

T1 sequence (P13569 with tags, fused parts or gaps DEL508-508): as above

In general, EC50 refers to the concentration that produces a half-maximal response. With `COc1ccccc1[C@@H]1CO[C@@](C(=O)NS(=O)(=O)c2cccc3nc(C)ccc23)(c2cc(C)ccc2OC)C1` [Example 39, (2R,4R)-2-(2-methoxy-5-methylphenyl)-4-(2-methoxyphenyl)-N-(2-methylquinoline-5-sulfonyl)oxolane-2-carboxamide], the EC50 in assay [1] (setting [3]) worked out at 200 nM; in assay [1] (setting [4]) it was 470 nM; in assay [2] it was 26.1 nM. For the same molecule, in assay [1] (setting [5]), the Emax was found to be 470%. Besides, the “Emax (% Dual)” value in assay [2] is 239 % Dual.
On to `COc1ccccc1[C@@H]1CO[C@@](C(=O)NS(=O)(=O)c2cccc3nc(N)ccc23)(c2cc(C)ccc2OC)C1` [Example 40, (2R,4R)—N-(2-aminoquinoline-5-sulfonyl)-2-(2-methoxy-5-methylphenyl)-4-(2-methoxyphenyl)oxolane-2-carboxamide], for which the concentration giving a half-maximal response (EC50) came to 160 nM in assay [1] (setting [3]), 440 nM in assay [1] (setting [4]) and 2.6 nM in assay [2]. For the same molecule, the Emax in assay [1] (setting [5]) came to 705%. Besides, in assay [2], the “Emax (% Dual)” value was 208 % Dual.
For `COc1ccc(C)cc1[C@@]1(C(=O)NS(=O)(=O)c2cccc3nc(N)ccc23)C[C@H](c2ccccc2)CO1` [Example 41, (2R,4R)—N-(2-aminoquinoline-5-sulfonyl)-2-(2-methoxy-5-methylphenyl)-4-phenyloxolane-2-carboxamide], in that order: 270 nM, 760 nM, 19.4 nM, 872% and 274 % Dual.
The matching figures for `COc1cccc([C@@H]2CO[C@@](C(=O)NS(=O)(=O)c3cccc4nc(C)ccc34)(c3cc(C)ccc3OC)C2)c1` [Example 42, (2R,4R)-2-(2-methoxy-5-methylphenyl)-4-(3-methoxyphenyl)-N-(2-methylquinoline-5-sulfonyl)oxolane-2-carboxamide]: 570 nM, 1120 nM, 11.1 nM, 751% and 237 % Dual.
Consider `COc1ccc([C@@H]2CO[C@@](C(=O)NS(=O)(=O)c3cccc4nc(C)ccc34)(c3cc(C)ccc3OC)C2)cc1` [Example 44, (2R,4R)-2-(2-methoxy-5-methylphenyl)-4-(4-methoxyphenyl)-N-(2-methylquinoline-5-sulfonyl)oxolane-2-carboxamide], for which the values for the concentration for a half-maximal effect (EC50) in assay [1] (setting [3]), in assay [1] (setting [4]) and in assay [2] were 300 nM, 600 nM and 11.6 nM, respectively. Also, the Emax in assay [1] (setting [5]) turned out to be 512%. Moreover, in assay [2], the “Emax (% Dual)” value is 335 % Dual.
With `COc1ccc([C@H]2CO[C@@](C(=O)NS(=O)(=O)c3cccc4nc(C)ccc34)(c3cc(C)ccc3OC)C2)cc1` [Example 45, (2R,4S)-2-(2-methoxy-5-methylphenyl)-4-(4-methoxyphenyl)-N-(2-methylquinoline-5-sulfonyl)oxolane-2-carboxamide], the concentration giving a half-maximal response (EC50) in assay [1] (setting [3]) was 440 nM; in assay [1] (setting [4]) it was 610 nM; in assay [2], 36.3 nM. For the same molecule, the “Maximum % activity (with co-corrector)” value in assay [1] (with co-corrector 2 μM, normalized to on-plate positive control) turned out to be 911%. Also, the Emax in assay [1] (setting [5]) came to 386%. Further, the “Emax (% Dual)” value in assay [2] was found to be 229 % Dual.
